PubChem BioAssay AID248 (DTP/NCI, 2004)
Inconclusive results and toxic doses are left out. Rule as the data show it: active = T/C of 150% or more; inactive = T/C below 125%.

Test system: L1210 leukemia ip in BDF1 mice, survival T/C
Assay: NCI In Vivo Anticancer Drug Screen. Data for tumor model L1210 Leukemia (intraperitoneal) in B6D2F1 (BDF1) mice
Details: endpoint: mean survival time, higher = longer survival
Method in brief: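 Tumor cells were implanted, animals were treated, and survival was followed. The result divides the treated measurement by the vehicle-control measurement.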

[1] = dose: 100.0 mg/kg/injection, schedule: Q01DX009 (ip), vehicle: saline with Tween-80
[2] = dose: 200.0 mg/kg/injection, schedule: Q01DX009 (ip), vehicle: saline with Tween-80
[3] = dose: 50.0 mg/kg/injection, schedule: Q01DX001 (ip), vehicle: saline
[4] = dose: 100.0 mg/kg/injection, schedule: Q01DX001 (ip), vehicle: saline
[5] = dose: 200.0 mg/kg/injection, schedule: Q01DX001 (ip), vehicle: saline
[6] = dose: 200.0 mg/kg/injection, schedule: Q01DX009 (ip), vehicle: Klucel (hydroxypropylcellulose) (HPC)
[7] = dose: 400.0 mg/kg/injection, schedule: Q01DX009 (ip), vehicle: Klucel (hydroxypropylcellulose) (HPC)
[8] = dose: 400.0 mg/kg/injection, schedule: Q01DX001 (ip), vehicle: saline
[9] = dose: 400.0 mg/kg/injection, schedule: Q01DX009 (ip), vehicle: saline with Tween-80

Measured: T/C

Cc1cc(N(CCCl)CCCl)ccc1N=Nc1ccccc1C(=O)[O-].Cc1cc(N(CCCl)CCCl)ccc1N=Nc1ccccc1C(=O)[O-].[Cu+2]
inactive: dose: 2.0 mg/kg/injection, schedule: Q01DX015 (ip), vehicle: carboxymethylcellulose (CMC) 111 % of control | dose: 4.0 mg/kg/injection, schedule: Q01DX015 (ip), vehicle: carboxymethylcellulose (CMC) 117 % of control | dose: 8.0 mg/kg/injection, schedule: Q01DX015 (ip), vehicle: carboxymethylcellulose (CMC) 120 % of control | dose: 15.0 mg/kg/injection, schedule: Q01DX015 (ip), vehicle: carboxymethylcellulose (CMC) 123 % of control

CCCCCCCCCCCCCCCC(=O)Nc1ccc(C(=O)C[n+]2ccc3c(NC(=O)CCC(=O)OC)cccc3c2)cc1
inactive: dose: 75.0 mg/kg/injection, schedule: Q01DX001 (ip), vehicle: other 86 % of control | dose: 150.0 mg/kg/injection, schedule: Q01DX001 (ip), vehicle: other 95 % of control

C/C=C/C(OC(C)=O)OC(C)=O
inactive: dose: 50.0 mg/kg/injection, schedule: Q01DX009 (ip), vehicle: saline with Tween-80 101 % of control | [1] 101 % of control | [2] 101 % of control

CSc1nc(SC)c2c(ncn2C2OC(CO)C(O)C2O)n1 (stereo unspecified)
inactive: [3] 111 % of control | [4] 102 % of control | [5] 104 % of control

CC(C)(C)C12N=NCC1C(=O)C1(C(C)(C)C)OC1C2=O (stereo unspecified)
inactive: dose: 100.0 mg/kg/injection, schedule: Q01DX001 (ip), vehicle: saline with Tween-80 102 % of control | dose: 200.0 mg/kg/injection, schedule: Q01DX001 (ip), vehicle: saline with Tween-80 97 % of control | dose: 400.0 mg/kg/injection, schedule: Q01DX001 (ip), vehicle: saline with Tween-80 94 % of control

CSc1ccccc1C=O
inactive: dose: 100.0 mg/kg/injection, schedule: Q01DX009 (ip), vehicle: Klucel (hydroxypropylcellulose) (HPC) 114 % of control | dose: 100.0 mg/kg/injection, schedule: Q04DX003 (ip), vehicle: Klucel (hydroxypropylcellulose) (HPC) 94 % of control | [6] 105 % of control | dose: 200.0 mg/kg/injection, schedule: Q04DX003 (ip), vehicle: Klucel (hydroxypropylcellulose) (HPC) 95 % of control | [7] 106 % of control | dose: 400.0 mg/kg/injection, schedule: Q04DX003 (ip), vehicle: Klucel (hydroxypropylcellulose) (HPC) 95 % of control

COc1ccc(CC(C(=O)O)c2ccccc2C(=O)O)cc1OC (stereo unspecified)
inactive: [4] 101 % of control | [5] 97 % of control | [8] 97 % of control

OCCCCN1CCCCC1
inactive: [4] 106 % of control | [5] 101 % of control

O=C(O)CSc1ccc(NC(=O)NC2CCCCC2)cc1
inactive: [1] 96 % of control | dose: 100.0 mg/kg/injection, schedule: Q04DX003 (ip), vehicle: saline sonified 114 % of control | [2] 91 % of control | dose: 200.0 mg/kg/injection, schedule: Q04DX003 (ip), vehicle: saline sonified 89 % of control | [9] 88 % of control | dose: 400.0 mg/kg/injection, schedule: Q04DX003 (ip), vehicle: saline sonified 96 % of control

CCC(CCC(C)C1CCC2C3CC=C4CC(OC(=O)CCC(=O)O)CCC4(C)C3CCC12C)C(C)C (stereo unspecified)
inactive: [1] 101 % of control | [2] 96 % of control | [9] 92 % of control

Cc1ccc(S(=O)(=O)OCC2OC(n3cnc4c(=O)[nH]cnc43)C3OC(C)(C)OC23)cc1 (stereo unspecified)
inactive: dose: 100.0 mg/kg/injection, schedule: Q01DX005 (ip), vehicle: saline 103 % of control | dose: 200.0 mg/kg/injection, schedule: Q01DX005 (ip), vehicle: saline 103 % of control

COc1ccc2ncc(C)c(CO)c2c1
inactive: dose: 44.0 mg/kg/injection, schedule: Q01DX009 (ip), vehicle: Klucel (hydroxypropylcellulose) (HPC) 96 % of control | dose: 66.0 mg/kg/injection, schedule: Q01DX009 (ip), vehicle: Klucel (hydroxypropylcellulose) (HPC) 98 % of control | dose: 150.0 mg/kg/injection, schedule: Q01DX009 (ip), vehicle: Klucel (hydroxypropylcellulose) (HPC) 101 % of control | [6] 102 % of control | [7] 102 % of control

S=C=Nc1cccc2c(N=C=S)cccc12
inactive: [3] 98 % of control | [4] 98 % of control | [5] 110 % of control | [8] 119 % of control
